Experimental data taken from ChEMBL document CHEMBL3739293, “Synthesis of unusual isoxazoline containingand-dipeptides as potential glutamate receptor ligands” (Medchemcomm, 2015).

What was measured:
[1] = Displacement of [3H]KA from KA receptor in Sprague-Dawley rat brain synaptic membrane
Glutamate NMDA receptor = test: Displacement of [3H]CGP39653 from NMDA receptor in Sprague-Dawley rat brain synaptic membrane
[2] = Displacement of [3H]AMPA from AMPA receptor in Sprague-Dawley rat brain synaptic membrane

Row | SMILES | IC50 [1] [µM] | pIC50 [1] | Ki (Glutamate NMDA receptor) [µM] | pKi (Glutamate NMDA receptor) | IC50 [2] [µM] | pIC50 [2]
1 | N[C@H](CCC(=O)N1C[C@@H]2C(C(=O)O)=NO[C@@H]2C1)C(=O)O | > 100 |  | 58 | 4.24 | > 100 | 
2 | N[C@@H](CCC(=O)N1C[C@@H]2ON=C(C(=O)O)[C@@H]2C1)C(=O)O | 66 | 4.2 | 24 | 4.64 | 46 | 4.34
3 | N[C@H](CCC(=O)N1C[C@@H]2ON=C(C(=O)O)[C@@H]2C1)C(=O)O (single isomer, unassigned) | 56 | 4.25 | 28 | 4.56 | 67 | 4.18

Continued, values first:

Row | IC50 [1] [µM] | pIC50 [1] | Ki (Glutamate NMDA receptor) [µM] | pKi (Glutamate NMDA receptor) | IC50 [2] [µM] | pIC50 [2] | SMILES
4 | 37 | 4.43 | 25 | 4.63 | 43 | 4.37 | N[C@@H](CCC(=O)N1C[C@@H]2ON=C(O)[C@@H]2C1)C(=O)O
5 | > 100 |  | > 100 |  | > 100 |  | N[C@H](CCC(=O)N1C[C@@H]2C(O)=NO[C@@H]2C1)C(=O)O
6 | 40 | 4.39 | 21 | 4.68 | 34 | 4.48 | N[C@@H](CCC(=O)N1C[C@@H]2C(C(=O)O)=NO[C@@H]2C1)C(=O)O (single isomer, unassigned)
7 | > 100 |  | > 100 |  | > 100 |  | N[C@H](CCC(=O)N1C[C@@H]2ON=C(O)[C@@H]2C1)C(=O)O (single isomer, unassigned)
8 | 59 | 4.23 | 41 | 4.41 | 48 | 4.36 | N[C@@H](CCC(=O)N1C[C@@H]2C(O)=NO[C@@H]2C1)C(=O)O (single isomer, unassigned)
